The values below come from patent US8623998B2, “Method of production of polyanionic drug-carrier conjugates” (priority 2008, dated 2014).

The assay deals with P388 leukemia. The assay can be described thus: Survival of mice with P388 leukemia treated with methotrexate-fibrinogen conjugate. Type of assay: in vivo. The note with it: dosage of methotrexate 40 mg/kg. On the procedure:
Table of survival of mice with P388 leukemia treated with methotrexate-fibrinogen conjugate. Dosage of methotrexate 40 mg/kg.
S—number of mice with no leukemia detected on the 60th day of the experiment (mice considered cured) L—number of mice which died before the control ILS—ILS increase of life span Conjugates F-MTX were obtained in the reaction of fibrinogen glycation with fructose. Conjugates G-MTX were obtained in the reaction of fibrinogen glycation with glucose. Glycation was carried out according to the high temperature procedure.
Table, of survival of, mice with P388 leukemia treated with methotrexate fibrinogen conjugate. Dosage of methotrexate 40 mg/kg.

On to `CN(Cc1cnc2nc(N)nc(N)c2n1)c1ccc(C(=O)N[C@@H](CCC(=O)O)C(=O)O)cc1` [Methotrexat, methotrexate], for which the “ILS (%) increase of life span” value was 36%. The compound also registered a Mean survival rate (experiment ended on 60th day) of 15.0.
